US20050090397A1, “Herbicides made from substituted aryl ketones” (priority 2001, published 2005)

How the values were obtained:
Format in all cases: in vivo
Lindernia pyxidari = assay: Greenhouse test in transplanted paddy rice: herbicidal damage to weed; conditions: applied to water surface, rated 3 weeks after application vs untreated control
Description: (§1) To produce a preparation of active compound, 1 part by weight of an active compound combination according to the invention is mixed with the stated amount of solvent and, after addition of the stated amount of the emulsifier, diluted with water to the desired concentration.
(§2) Vessels for planting (500 cm^2) are filled with soil from a rice field, and in each case 3 rice plants (cultivar: Nipponbare, 2-3-leaf stage, height: about 15 cm) are planted into the middle of vessels for planting. Into the same vessels for planting, seeds are sown. The soil in the vessels is kept moist. After two days, each vessel for planting is flooded to a water depth of 2-3 cm.
(§3) Five days after the rice plants were transplanted, the amount of active compound is, in the preparation described above, applied to the surface of the water in the vessels for planting using a pipette. The water depth in the vessels for planting is maintained at 2-3 cm.
(§4) 3 weeks after the application of active compound, the efficacy is rated in % damage in comparison to the untreated control.
(§5) Active compounds, application rates and results are shown in Table A1 below, the abbreviations used in the table having the following meanings: • (I-65) N-[2,6-dichloro-3-[2,6-dioxocyclohexyl)-carbonyl]-phenyl]pyrrolidone-1-carboxamide • (I-2) N′-[2,6-dichloro-3-[(2,6-dioxo-cyclohexyl)-carbonyl]-phenyl]-N-methoxy-N-methyl-urea • (A) fentrazamide

[1] = test system: rice plants (cultivar: Nipponbare); assay: Greenhouse test in transplanted paddy rice: crop damage; conditions: rated 3 weeks after application
Description: as §1, §2, §3, §4, §5

ROT/N = assay: Herbicidal damage to weed ROT/N (Tables B1, B3); conditions: application rate 50 g/ha
DOPJU = assay: Herbicidal damage to weed DOPJU (Table B2); conditions: application rate 50 g/ha
Description: as §1, §2, §3, §4, §5

CCN(C(=O)n1nnn(-c2ccccc2Cl)c1=O)C1CCCCC1 [(A), 4-(2-chloro-phenyl)-N-cyclohexyl-N-ethyl-4,5-dihydro-5-oxo-1H-tetrazol-1-carboxamide]
Damage to Lindernia pyxidari (%) (Lindernia pyxidari; application rate 150 g/ha): 70% | Damage to rice (%) ([1]; application rate 150 g/ha): 0% | Damage (to ROT/N) (%) (ROT/N; Table B1): 60% | Damage (to DOPJU) (%) (DOPJU): 50%

CCC1(CC2(c3cccc(Cl)c3)CO2)C(=O)c2ccccc2C1=O (stereo not shown) [B, 2-[2-(3-chloro-phenyl)-oxiranyl-methyl]-2-ethyl-1H-indene-1,3 (2H)-dione]
Damage (to ROT/N) (%) (ROT/N; Table B3): 2%

CON(C)C(=O)Nc1c(Cl)ccc(C(=O)C2C(=O)CCCC2=O)c1Cl [Example I-2, N′-[2,6-dichloro-3-[(2,6-dioxo-cyclohexyl)-carbonyl]-phenyl]-N-methoxy-N-methyl-urea]
Damage to Lindernia pyxidari (%) (Lindernia pyxidari; application rate 200 g/ha): 60% | Damage to rice (%) ([1]; application rate 200 g/ha): 0%
